{
  "source": "a compilation of properties of binary mixtures (doi:10.1007/s10953-015-0327-z)",
  "assay": "xn = mol fraction of the nth substance listed",
  "conditions": "298.15 K, 101 kPa",
  "data": [
    {"smiles": "CCCn1cc[n+](C)c1.O=S(=O)([N-]S(=O)(=O)C(F)(F)F)C(F)(F)F", "note": "+ O", "values": [
      {"measurement": "speed of sound", "setting": "x2 = 0.0016", "value": 1230.2, "unit": "m/s"},
      {"measurement": "speed of sound", "setting": "x2 = 0.0556", "value": 1231.7, "unit": "m/s"},
      {"measurement": "speed of sound", "setting": "x2 = 0.2358", "value": 1236, "unit": "m/s"}
    ]},
    {"smiles": "CCCC[n+]1ccn(C)c1.O=S(=O)([N-]S(=O)(=O)C(F)(F)F)C(F)(F)F", "note": "+ O", "values": [
      {"measurement": "speed of sound", "setting": "x2 = 0.012", "value": 1226.2, "unit": "m/s"},
      {"measurement": "speed of sound", "setting": "x2 = 0.1166", "value": 1228.4, "unit": "m/s"},
      {"measurement": "speed of sound", "setting": "x2 = 0.1843", "value": 1230.3, "unit": "m/s"}
    ]},
    {"smiles": "CC[n+]1ccn(C)c1.N#C[S-]", "note": "+ O", "values": [
      {"measurement": "speed of sound", "setting": "x2 = 0.153", "value": 1848.1, "unit": "m/s"},
      {"measurement": "speed of sound", "setting": "x2 = 0.204", "value": 1847.8, "unit": "m/s"}
    ]},
    {"smiles": "CCCC[N+]1(C)CCCC1.O=S(=O)([N-]S(=O)(=O)C(F)(F)F)C(F)(F)F", "note": "+ O", "values": [
      {"measurement": "speed of sound", "setting": "x2 = 0.0092", "value": 1267.8, "unit": "m/s"},
      {"measurement": "speed of sound", "setting": "x2 = 0.0139", "value": 1267.7, "unit": "m/s"},
      {"measurement": "speed of sound", "setting": "x2 = 0.0228", "value": 1267.8, "unit": "m/s"},
      {"measurement": "speed of sound", "setting": "x2 = 0.0467", "value": 1268.3, "unit": "m/s"},
      {"measurement": "speed of sound", "setting": "x2 = 0.2014", "value": 1273.9, "unit": "m/s"}
    ]}
  ]
}
